Patent US11639353B2, “Cyclobutanes- and azetidine-containing mono and spirocyclic compounds as αV integrin inhibitors” (BRISTOL-MYERS SQUIBB COMPANY, priority 2016, dated 2023)

Target: T1, human αVβ6 (Homo sapiens, UniProt P06756+P18564)
T1 construct: purchased R & D systems 3817-AV
Assay: human αVβ6 HTRF binding assay
Details: alternatively SPA-based assay
Experimental: All binding assays used the HTRF (homogeneous time resolved fluorescence) technology from Cisbio International, therefore all assays are described as HTRF binding assays. The assay results for the Examples are listed above together with the characterization data. The HTRF binding assays are established for the following integrins: human αVβ6, human αVβ1, human αVβ3, human αVβ5, and human αVβ8. All assays used the following assay buffer: 20 mM Tris, pH 7.4, 1 mM MgCl2, 1 mM MnCl2, 0.01% Tween 20, and 0.01% BSA. Alternatively, a SPA-based assay was used for evaluation of receptor binding.
The following describes the components and a representative procedure for the human αVβ6 HTRF binding assay: Recombinant human αVβ6 Integrin (R & D systems, 3817-AV) was biotinylated. Biotinylated human αVβ6 Integrin was added to assay vessel at a final concentration of 1.25 nM. FITC-conjugated fibronectin (Cytoskeleton, FNR02) was then added at the final concentration of 5 nM. The mixture was centrifuged at 600 rpm for three minutes using Thermo Fisher Heraeus Multifuge X3 centrifuge and then incubated at RT for an hour. Streptavidin Terbium (Cisbio international 610STLB) was then added at the final concentration of 0.625 nM. The resulting mixture was centrifuged at 600 rpm for three minutes using Thermo Fisher Heraeus Multifuge X3 centrifuge and then incubated at room temperature overnight in dark before reading HTRF signals.
The SPA-based assay was carried out according to the protocol and procedures similar to the ones described in the following reference with appropriate modifications to agents and ligands which are readily understood by one skilled in the art: Pachter J A, Zhang R, Mayer-Ezell R., “Scintillation proximity assay to measure binding of soluble fibronectin to antibody-captured αVβ1 integrin” Anal Biochem. 1995 Sep. 1; 230(1):101-7.

T1 sequence (P06756 31-992 limits assumed): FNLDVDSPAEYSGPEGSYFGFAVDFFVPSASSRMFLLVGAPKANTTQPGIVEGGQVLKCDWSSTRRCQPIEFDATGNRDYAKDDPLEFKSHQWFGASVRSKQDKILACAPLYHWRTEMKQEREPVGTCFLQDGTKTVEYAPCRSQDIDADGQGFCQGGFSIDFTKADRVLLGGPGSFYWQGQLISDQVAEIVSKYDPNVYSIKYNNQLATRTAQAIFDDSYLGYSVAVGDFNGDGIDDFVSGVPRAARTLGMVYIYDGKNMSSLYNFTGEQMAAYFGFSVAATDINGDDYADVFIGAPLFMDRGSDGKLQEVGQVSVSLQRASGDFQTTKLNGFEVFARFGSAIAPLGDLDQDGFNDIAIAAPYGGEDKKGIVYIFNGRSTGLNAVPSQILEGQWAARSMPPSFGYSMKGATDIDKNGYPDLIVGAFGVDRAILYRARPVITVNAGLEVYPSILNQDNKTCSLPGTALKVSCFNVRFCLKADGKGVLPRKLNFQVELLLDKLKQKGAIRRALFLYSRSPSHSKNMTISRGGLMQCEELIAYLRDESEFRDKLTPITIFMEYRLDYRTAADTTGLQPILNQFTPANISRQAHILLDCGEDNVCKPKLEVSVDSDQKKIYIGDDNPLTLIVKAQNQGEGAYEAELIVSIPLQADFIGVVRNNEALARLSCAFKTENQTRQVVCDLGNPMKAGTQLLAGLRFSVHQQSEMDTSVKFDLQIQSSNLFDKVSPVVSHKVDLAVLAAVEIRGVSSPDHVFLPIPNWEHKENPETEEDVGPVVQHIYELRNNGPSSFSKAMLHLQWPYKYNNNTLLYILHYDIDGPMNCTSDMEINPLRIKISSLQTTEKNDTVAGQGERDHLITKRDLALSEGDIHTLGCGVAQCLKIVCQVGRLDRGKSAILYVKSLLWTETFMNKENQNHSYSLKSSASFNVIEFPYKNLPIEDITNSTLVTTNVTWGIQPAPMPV
T1 sequence (P18564 22-707 limits assumed): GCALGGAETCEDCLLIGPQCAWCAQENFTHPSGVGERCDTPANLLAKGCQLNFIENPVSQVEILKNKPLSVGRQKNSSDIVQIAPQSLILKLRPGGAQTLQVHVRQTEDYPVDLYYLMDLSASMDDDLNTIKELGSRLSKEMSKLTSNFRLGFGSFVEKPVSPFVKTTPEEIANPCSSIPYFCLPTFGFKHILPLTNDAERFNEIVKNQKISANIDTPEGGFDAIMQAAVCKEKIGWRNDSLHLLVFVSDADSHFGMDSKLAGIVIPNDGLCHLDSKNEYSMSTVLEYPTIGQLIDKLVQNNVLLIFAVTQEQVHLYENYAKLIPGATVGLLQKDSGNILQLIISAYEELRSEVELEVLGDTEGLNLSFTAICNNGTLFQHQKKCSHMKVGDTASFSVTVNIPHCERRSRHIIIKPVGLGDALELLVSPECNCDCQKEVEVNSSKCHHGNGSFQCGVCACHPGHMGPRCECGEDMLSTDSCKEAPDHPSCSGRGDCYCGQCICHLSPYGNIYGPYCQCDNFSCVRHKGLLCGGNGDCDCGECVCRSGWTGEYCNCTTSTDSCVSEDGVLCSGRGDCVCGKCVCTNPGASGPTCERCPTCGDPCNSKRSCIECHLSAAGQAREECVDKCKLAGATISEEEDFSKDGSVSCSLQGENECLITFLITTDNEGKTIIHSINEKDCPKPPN

| Structure (SMILES) | IC50 |
| --- | --- |
| COC(=O)N(C1CC2(C1)CN(CCc1ccc3c(n1)NCCC3)C2)[C@@H](CC(=O)O)c1cc(Cl)cc(Cl)c1 [Example 19, (S)-3-(3,5-Dichlorophenyl)-3-((methoxycarbonyl)(2-(2-(5,6,7,8-tetrahydro-1,8-naphthyridin-2-yl)ethyl)-2-azaspiro[3.3]heptan-6-yl)amino)propanoic acid] | 84.5 nM |
| CN(C1CC2(C1)CN(CCc1ccc3c(n1)NCCC3)C2)[C@@H](CC(=O)O)c1cc(Cl)cc(Cl)c1 [Example 20, (S)-3-(3,5-Dichlorophenyl)-3-(methyl(2-(2-(5,6,7,8-tetrahydro-1,8-naphthyridin-2-yl)ethyl)-2-azaspiro[3.3]heptan-6-yl)amino)propanoic acid] | 16 nM |
| CC(=O)N(C1CN(CCCc2ccc3c(n2)NCCC3)C1)[C@@H](CC(=O)O)c1cc(Cl)cc(Cl)c1 [Example 21, (S)-3-(3,5-Dichlorophenyl)-3-(N-(1-(3-(5,6,7,8-tetrahydro-1,8-naphthyridin-2-yl)propyl)azetidin-3-yl)acetamido)propanoic acid] | 9.8 nM |
| COc1ccc(C(CC(=O)O)C2(F)CN(CCCCc3ccc4c(n3)NCCC4)C2)cc1F (stereo not drawn) [Example 22, 3-(3-Fluoro-1-(4-(5,6,7,8-tetrahydro-1,8-naphthyridin-2-yl)butyl)azetidin-3-yl)-3-(3-fluoro-4-methoxyphenyl)propanoic acid] | 3.8 nM |
| COc1ccc(CN(CCC(=O)O)C2CN(CCCc3ccc4c(n3)NCCC4)C2)cn1 [Example 23, 3-(((6-Methoxypyridin-3-yl)methyl)(1-(3-(5,6,7,8-tetrahydro-1,8-naphthyridin-2-yl)propyl)azetidin-3-yl)amino)propanoic acid] | 2.8 nM |
| COC(Cc1ccc2c(n1)NCCC2)C1CN(C(=O)C[C@H](NC(=O)OCc2ccccc2)C(=O)O)C1 (stereo partly drawn) [Example 24, (2S)-2-(((Benzyloxy)carbonyl)amino)-4-(3-(1-methoxy-2-(5,6,7,8-tetrahydro-1,8-naphthyridin-2-yl)ethyl)azetidin-1-yl)-4-oxobutanoic acid] | 490 nM |
| COc1ccc([C@H](CC(=O)O)NC(=O)C2CC(C(Cc3ccc4c(n3)NCCC4)NS(=O)(=O)c3ccc(C)cc3)C2)cc1F (stereo partly drawn) [Example 25, (3S)-3-(3-Fluoro-4-methoxyphenyl)-3-(3-(1-(4-methylphenylsulfonamido)-2-(5,6,7,8-tetrahydro-1,8-naphthyridin-2-yl)ethyl)cyclobutanecarboxamido)propanoic acid] | 3 nM |
| Cc1cc(C)c(S(=O)(=O)N[C@@H](CNC(=O)C2CC3(CC(NC(=O)CCc4ccc5c(n4)NCCC5)C3)C2)C(=O)O)c(C)c1 (stereo partly drawn) [Example 28] | 380 nM |
| O=C(O)C[C@H](NC(=O)C1CC2(CC(NC(=O)CCc3ccc4c(n3)NCCC4)C2)C1)c1cc(Cl)cc(Cl)c1 (stereo partly drawn) [Example 29] | 2000 nM |
| O=C(O)C[C@H](NC(=O)C1CC2(CC(NC(=O)CCc3ccc4c(n3)NCCC4)C2)C1)c1cc(Cl)cc(Cl)c1 (stereo partly drawn) [Example 30] | 3300 nM |
| CCOC(=O)C[C@H](NC(=O)C1CC2(C1)CN(CCc1ccc3c(n1)NCCC3)C2)c1ccc(OC)c(F)c1 [Example 31] | 230 nM |
| COc1ccc([C@H](CC(=O)O)NC(=O)C2CC3(C2)CN(CCCc2ccc4c(n2)NCCC4)C3)cn1 [Example 32] | 130 nM |
| O=C(O)C[C@H](NC(=O)C1CC2(C1)CN(CCc1ccc3c(n1)NCCC3)C2)c1cc(Cl)cc(Cl)c1 [Example 33] | 2.7 nM |
| CC(C)(C)c1cc(Br)cc([C@H](CC(=O)O)NC(=O)C2CC3(C2)CN(CCc2ccc4c(n2)NCCC4)C3)c1 [Example 34] | 2 nM |
| Cc1cc(C)c(S(=O)(=O)N[C@@H](CNC(=O)C2CC3(C2)CN(CCc2ccc4c(n2)NCCC4)C3)C(=O)O)c(C)c1 [Example 35] | 2.7 nM |
| COc1ccc([C@H](CC(=O)O)NC(=O)C2CN(CCc3ccc4c(n3)NCCC4)C2)cn1 [Example 37] | 1 nM |
| O=C(O)C[C@H](NC(=O)C1CN(CCc2ccc3c(n2)NCCC3)C1)c1cc(Cl)cc(Cl)c1 [Example 38] | 0.8 nM |
| COc1ccc([C@H](CC(=O)O)NC(=O)C2CC3(C2)CN(CCc2ccc4c(n2)NCCC4)C3)cc1F [Example 39] | 8.4 nM |
| COc1ccc([C@H](CC(=O)O)NC(=O)C2CN(CCCc3ccc4c(n3)NCCC4)C2)cn1 [Example 40] | 1.6 nM |
| O=C(N[C@@H](CNC(=O)C1CC2(C1)CN(CCc1ccc3c(n1)NCCC3)C2)C(=O)O)OCc1ccccc1 [Example 41] | 9.3 nM |
| COc1ccc([C@H](CC(=O)O)NC(=O)C2CN(CCc3ccc4c(n3)NCCC4)C2)cc1F [Example 42] | 0.4 nM |
| O=C(N[C@@H](CNC(=O)C1CN(CCc2ccc3c(n2)NCCC3)C1)C(=O)O)OCc1ccccc1 [Example 43] | 0.4 nM |
| COc1ccc([C@H](CC(=O)O)NC(=O)C2(F)CN(CCc3ccc4c(n3)NCCC4)C2)cc1F [Example 44] | 0.6 nM |
| COc1ccc([C@H](CC(=O)O)NC(=O)C2(F)CN(CCc3ccc4c(n3)NCCC4)C2)cn1 [Example 46] | 0.6 nM |
| CCOC(=O)[C@H](CNC(=O)C1CC2(C1)CN(CCc1ccc3c(n1)NCCC3)C2)NS(=O)(=O)c1c(C)cc(C)cc1C [Example 47] | 160 nM |
| CCOC(=O)C[C@H](NC(=O)C1CN(CCc2ccc3c(n2)NCCC3)C1)c1ccc(OC)nc1 [Example 48] | 400 nM |
| CCOC(=O)C[C@H](NC(=O)C1CC2(C1)CN(CCc1ccc3c(n1)NCCC3)C2)c1cc(Cl)cc(Cl)c1 [Example 49] | 480 nM |

| Structure (SMILES) | IC50 |
| --- | --- |
| COc1ccc([C@H](CC(=O)O)NC(=O)[C@H]2C[C@@H](CCc3ccc4c(n3)NCCC4)C2)cc1F [Example 54] | 0.5 nM |
| N[C@@H](CNC(=O)C1CN(CCc2ccc3c(n2)NCCC3)C1)C(=O)O [Example 55] | 20 nM |
| COc1ccc([C@H](CC(=O)O)NC(=O)C2CC(CCC3CCc4cccnc4N3)C2)cn1 (stereo partly drawn) [Example 57] | 0.94 nM |
| COc1ccc([C@H](CC(=O)O)NC(=O)[C@H]2C[C@@H](CCc3ccc4c(n3)NCCC4)C2)cn1 [Example 60] | 1 nM |
| O=C(N[C@@H](CC(=O)N1CC2(CC(CCc3ccc4c(n3)NCCC4)C2)C1)C(=O)O)OCc1ccccc1 [Example 61] | 20 nM |
| O=C(C[C@H](NC(=O)OCc1ccccc1)C(=O)O)NC1CC(CCc2ccc3c(n2)NCCC3)C1 (stereo partly drawn) [Example 64] | 4 nM |
| COc1ccc(C(CC(=O)O)CC(=O)N2CC(CCc3ccc4c(n3)NCCC4)C2)cc1F (stereo not drawn) [Example 67] | 7.1 nM |
| COc1ccc([C@H](CC(=O)O)N2CC(CCCCc3ccc4c(n3)NCCC4)C2=O)cn1 (stereo partly drawn) [Example 68] | 2.4 nM |
| COc1ncc([C@H](CC(=O)O)N2CC(CCCCc3ccc4c(n3)NCCC4)C2=O)cn1 (stereo partly drawn) [Example 70] | 5.8 nM |
| O=C(O)C[C@@H](c1cc(F)cc(F)c1)N1CC(CCCCc2ccc3c(n2)NCCC3)C1=O (stereo partly drawn) [Example 71] | 1.5 nM |
| COc1ccc([C@H](CC(=O)O)NC2CN(CCCc3ccc4c(n3)NCCC4)C2)cc1F [Example 72] | 1.1 nM |
| Cc1cc(C)c(S(=O)(=O)N[C@@H](CNC2CN(CCCc3ccc4c(n3)NCCC4)C2)C(=O)O)c(C)c1 [Example 73] | 6.5 nM |
| O=C(O)C[C@H](NC1CN(CCCc2ccc3c(n2)NCCC3)C1)c1cc(Cl)cc(Cl)c1 [Example 74] | 0.5 nM |
| COc1ccc([C@H](CC(=O)O)NC2CC3(C2)CN(CCc2ccc4c(n2)NCCC4)C3)cn1 [Example 75] | 17 nM |
| COc1ccc([C@H](CC(=O)O)NC(=O)N2CC(F)(CCc3ccc4c(n3)NCCC4)C2)cc1F [Example 76] | 0.96 nM |
| O=C(O)C[C@H](NC1CC2(C1)CN(CCCc1ccc3c(n1)NCCC3)C2)c1cc(Cl)cc(Cl)c1 [Example 79] | 3.2 nM |
| O=C(O)C[C@H](NC(=O)C1(F)CN(CCc2ccc3c(n2)NCCC3)C1)c1ccc2c(c1)OCC2 [Example 81] | 0.93 nM |
| O=C(O)C[C@H](NC(=O)[C@H]1C[C@@H](CCc2ccc3c(n2)NCCC3)C1)c1cncnc1 [Example 91] | 2.9 nM |
| O=C(O)C[C@H](NC(=O)[C@H]1C[C@H](CCc2ccc3c(n2)NCCC3)C1)c1cc(Cl)cc(Cl)c1 [Example 92] | 1.2 nM |
| COc1ccc([C@H](CC(=O)O)C2(F)CN(C(=O)CCCc3ccc4c(n3)NCCC4)C2)cc1F [Example 94] | 10 nM |
| COc1ccc([C@@H](CC(=O)O)C2(F)CN(C(=O)CCCc3ccc4c(n3)NCCC4)C2)cc1F [Example 95] | 230 nM |
| CN(C1CN(CCCc2ccc3c(n2)NCCC3)C1)[C@@H](CC(=O)O)c1cc(Cl)cc(Cl)c1 [Example 98] | 0.53 nM |
| COc1ccc(C(CC(=O)O)C2CC3(C2)CN(CCCc2ccc4c(n2)NCCC4)C3)cn1 (stereo not drawn) [Example 99] | 5.9 nM |
| COc1ccc(C(CC(=O)O)C2CC3(C2)CN(CCc2ccc4c(n2)NCCC4)C3)cn1 (stereo not drawn) [Example 100] | 2.4 nM |
| O=C(O)CC(c1cnc2ccccc2c1)C1CC2(C1)CN(CCc1ccc3c(n1)NCCC3)C2 (stereo not drawn) [Example 101] | 4.7 nM |
| O=C(O)C[C@@H](c1ccc2c(c1)OCC2)N1CC(CCCCc2ccc3c(n2)NCCC3)C1=O (stereo partly drawn) [Example 105] | 3.9 nM |
| O=C(O)C[C@@H](c1cnc2ccccc2c1)N1CC(CCCCc2ccc3c(n2)NCCC3)C1=O (stereo partly drawn) [Example 107] | 2.7 nM |
